Measured values published in patent US8569267B2, “Tetracyclic tetrahydrofuran derivatives containing cyclic amine side chain” (Janssen Pharmaceutica, NV, priority 2005, dated 2013).

How the values were obtained:
[1] = molecular target: T1, NET (norepinephrine transporter) (Rattus norvegicus, UniProt Q63380); assay: In vitro determination of NET reuptake inhibition ([3H]Nixosetine binding, rat brain cortex); settings: rat brain cortex; for IC50: read-out: NET pIC50 (converted)
T1 construct: Cortex from rat brain was collected and homogenised; from tissue; host or cells: rat brain cortex
T1 sequence (Q63380 1-617): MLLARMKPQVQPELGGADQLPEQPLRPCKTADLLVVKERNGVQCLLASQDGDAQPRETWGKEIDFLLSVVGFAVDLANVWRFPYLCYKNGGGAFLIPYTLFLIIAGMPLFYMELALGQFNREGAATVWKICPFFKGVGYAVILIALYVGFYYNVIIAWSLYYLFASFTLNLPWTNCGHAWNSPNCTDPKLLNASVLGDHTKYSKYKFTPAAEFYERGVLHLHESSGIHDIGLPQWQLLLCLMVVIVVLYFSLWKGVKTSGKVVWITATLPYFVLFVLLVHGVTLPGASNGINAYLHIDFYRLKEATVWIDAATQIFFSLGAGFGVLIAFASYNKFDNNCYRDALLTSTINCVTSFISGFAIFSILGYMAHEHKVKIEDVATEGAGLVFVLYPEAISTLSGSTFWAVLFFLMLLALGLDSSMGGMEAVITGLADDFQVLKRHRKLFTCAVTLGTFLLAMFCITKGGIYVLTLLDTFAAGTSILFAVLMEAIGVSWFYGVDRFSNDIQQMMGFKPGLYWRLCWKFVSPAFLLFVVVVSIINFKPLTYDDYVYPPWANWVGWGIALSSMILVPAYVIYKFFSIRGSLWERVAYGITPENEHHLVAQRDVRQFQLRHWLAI
In short: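 Competition curves and percentage specific binding came from scintillation counting of filter-trapped radioactivity. The membranes were rat cortical homogenate in pH 7.4 Tris buffer with 120 mM NaCl and 5 mM KCl. Test compounds competed with [3H]nisoxetine for binding.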

[2] = molecular target: T2, human cloned 5-HT2A receptor, expressed in L929 cells (Homo sapiens, UniProt P28223); assay: In vitro binding affinity for 5-HT2A receptor ([125I]R91150 radioligand binding); settings: human cloned 5-HT2A receptor in L929 cells, [125I]R91150; for IC50: read-out: 5-HT2A pIC50 (converted)
T2 construct: expressed in transfected cells; host or cells: L929 cells
T2 sequence (P28223 whole entry): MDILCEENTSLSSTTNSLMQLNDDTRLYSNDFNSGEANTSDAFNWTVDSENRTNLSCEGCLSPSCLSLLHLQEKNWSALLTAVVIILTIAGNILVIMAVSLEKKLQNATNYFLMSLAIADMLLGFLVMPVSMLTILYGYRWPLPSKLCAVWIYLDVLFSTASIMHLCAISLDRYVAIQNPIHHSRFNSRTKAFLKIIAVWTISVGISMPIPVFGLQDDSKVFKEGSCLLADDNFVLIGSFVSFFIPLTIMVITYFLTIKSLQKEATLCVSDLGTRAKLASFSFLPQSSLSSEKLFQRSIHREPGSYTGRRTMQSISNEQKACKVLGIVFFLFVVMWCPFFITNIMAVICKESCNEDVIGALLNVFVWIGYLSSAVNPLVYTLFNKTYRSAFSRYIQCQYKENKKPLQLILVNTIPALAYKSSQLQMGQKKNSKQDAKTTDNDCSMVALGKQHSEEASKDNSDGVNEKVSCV
In short: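 Competition radioligand binding to human cloned 5-HT2A receptor expressed in L929 cells, using [125I]R91150 with test compound at various concentrations. At equilibrium, receptor-bound radioactivity was separated from free and counted. Affinity reflects inhibition of radioligand binding.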

[3] = molecular target: T3, human cloned 5-HT2C receptor, expressed in CHO cells (Homo sapiens, UniProt P28335); assay: In vitro binding affinity for 5-HT2C receptor ([3H]mesulergine radioligand binding); settings: human cloned 5-HT2C receptor; for IC50: read-out: 5-HT2C pIC50 (converted)
T3 construct: expressed in transfected cells; host or cells: CHO cells
T3 sequence (P28335 33-458): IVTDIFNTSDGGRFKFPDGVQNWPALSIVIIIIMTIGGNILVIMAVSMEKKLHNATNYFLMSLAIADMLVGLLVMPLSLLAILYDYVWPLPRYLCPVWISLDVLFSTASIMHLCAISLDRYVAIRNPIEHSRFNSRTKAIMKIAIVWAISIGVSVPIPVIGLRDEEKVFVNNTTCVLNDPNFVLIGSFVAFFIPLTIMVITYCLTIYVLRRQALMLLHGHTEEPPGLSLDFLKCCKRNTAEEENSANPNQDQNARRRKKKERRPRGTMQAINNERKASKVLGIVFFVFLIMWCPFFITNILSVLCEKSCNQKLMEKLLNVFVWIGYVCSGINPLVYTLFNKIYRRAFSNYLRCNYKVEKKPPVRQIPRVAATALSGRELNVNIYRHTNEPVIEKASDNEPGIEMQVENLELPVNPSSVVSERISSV
In short: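 Receptor-bound radioligand counted after separation from unbound label once equilibrium is reached. Test compound added across a concentration range to tissue preparation plus radioligand; inhibition of binding reflects affinity and concentration.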

[4] = molecular target: T4, human Dopamine D2L receptor (Homo sapiens, UniProt P14416); assay: In vitro binding affinity for human D2L receptor ([3H]Spiperone binding); settings: human D2L receptor-transfected CHO cell membranes; for IC50: read-out: D2L pIC50 (converted)
T4 construct: expressed in transfected cells; host or cells: CHO cells
T4 sequence (P14416 whole entry): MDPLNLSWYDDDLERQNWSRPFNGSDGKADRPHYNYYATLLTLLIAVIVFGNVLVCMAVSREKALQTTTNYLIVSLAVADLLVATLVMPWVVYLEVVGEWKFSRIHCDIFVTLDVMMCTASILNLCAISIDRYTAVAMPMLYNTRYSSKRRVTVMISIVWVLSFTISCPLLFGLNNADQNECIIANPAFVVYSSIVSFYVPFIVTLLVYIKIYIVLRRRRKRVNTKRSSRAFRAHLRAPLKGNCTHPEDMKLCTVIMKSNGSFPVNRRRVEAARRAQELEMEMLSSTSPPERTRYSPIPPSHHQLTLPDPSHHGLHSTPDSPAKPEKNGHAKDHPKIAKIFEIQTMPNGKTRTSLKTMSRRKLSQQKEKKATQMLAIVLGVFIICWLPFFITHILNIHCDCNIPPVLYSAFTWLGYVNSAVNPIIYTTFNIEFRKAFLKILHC
In short: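 Competition curves were expressed as percent specific binding, measured by scintillation counting after filtration onto GF/B filters and ice-cold Tris washes. Test compounds competed with [3H]Spiperone, added from a 2 nmol/L dilution, for 30 min at 37° C on transfected CHO membranes in pH 7.7 Tris-HCl salt buffer. Butaclamol at 10^−6 mol/l final marked non-specific binding.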

Compound	IC50 [1] [nM]	IC50 [2] [nM]	IC50 [3] [nM]	IC50 [4] [nM]	NET pIC50 [1]	5-HT2A pIC50 [2]	5-HT2C pIC50 [3]	D2L pIC50 [4]
Cc1ccc(S(=O)(=O)N2CCN(CC3CC4c5ccccc5Cc5ccc(F)cc5C4O3)CC2)cc1 (stereo not shown) [Compound 107]	> 10000	83.2	331	81.3				
COc1ccc(N2CCN(CC3CC4c5ccccc5Cc5ccc(F)cc5C4O3)CC2)cc1 (stereo not shown) [Compound 116]	7240	9.77	20	37.2				
O=S(=O)(c1ccccc1)n1cccc1CN1CCN(CC2CC3c4ccccc4Cc4ccc(F)cc4C3O2)CC1 (stereo not shown) [Compound 68]	2400	67.6	117	91.2				
COc1cc(OC)c(CNC(=O)C2CCN(CC3CC4c5ccccc5Cc5ccc(F)cc5C4O3)CC2)c(OC)c1 (stereo not shown) [Compound 186]	3550	2.4	2.34	7.08				
O=C1CCN(C[C@H]2C[C@@H]3c4ccccc4Cc4ccc(F)cc4[C@@H]3O2)C1 [Compound 7, [2R-(2α, 3aα, 12bβ)]1-(11-fluoro-3,3a,8,12b-tetrahydro-2H-1-oxa-dibenzo[e,h]-azulen-2-ylmethyl)-pyrrolidin-3-one]	1620	< 10	2.95	141				
O=C(C1CCCC1)N1CCN(CC2CC3c4ccccc4Cc4ccc(F)cc4C3O2)CC1 (stereo not shown) [Compound 79]	> 10000	4.79	51.3	44.7				
COC(=O)C1CCN(C[C@H]2C[C@@H]3c4ccccc4Cc4ccc(F)cc4[C@@H]3O2)C1 (single isomer, unassigned) [Compound 11, [2R-(2α, 3aα, 12bβ)]-(3′RS) 1-(11-fluoro-3,3a,8,12b-tetrahydro-2H-1-oxa-dibenzo[e,h]azulen-2-ylmethyl)-pyrrolidine-3-carboxylic acid methyl ester.oxalate (1:1)]	8320	2.04	0.708	9.77				
COCC1CCCN1CC1CC2c3ccccc3Cc3ccc(F)cc3C2O1 (mixture of isomers) [Compound 38]	5130	13.5	15.5	224				
OCCC1CCN(C[C@H]2C[C@@H]3c4ccccc4Cc4ccc(F)cc4[C@@H]3O2)CC1 [Compound 154]	> 10000	0.912	1.62	1.35				
CC1CN(CC2CC3c4ccccc4Cc4ccc(F)cc4C3O2)C(C)CN1.O=C(O)C(=O)O (mixture of isomers) [Compound 280]					<5	6.53	6.53	5.40
N#Cc1ccc2c(c1)[C@H]1C[C@@H](CN3CCC(O)C3)O[C@H]1c1cc(F)ccc1S2 (relative stereo) [Compound 260]	912	2.24	3.09	24.5				
Fc1ccc2c(c1)C1OC(CN3CCN(C(=S)NCc4ccccc4)CC3)CC1c1ccccc1C2 (stereo not shown) [Compound 113]	2400	11	24	50.1				
Fc1ccc2c(c1)C1OC(CN3CCC(Oc4cccc(C(F)(F)F)c4)C3)CC1c1ccccc1C2 (mixture of isomers) [Compound 37]	> 10000	22.4	7.94	32.4				
COC1CCN(C[C@H]2C[C@@H]3c4ccccc4Cc4ccc(F)cc4[C@@H]3O2)C1 (stereo partly shown) [Compound 4]	5890	< 10	2.09	16.2				
O=C(O)CC1CN(C[C@H]2C[C@@H]3c4ccccc4Cc4ccc(F)cc4[C@@H]3O2)CCO1 (stereo partly shown) [Compound 134]	42.7	< 10	1.38	41.7				
O=[N+]([O-])c1ccc(CN2CCN(CC3CC4c5ccccc5Cc5ccc(F)cc5C4O3)CC2)cc1 (stereo not shown) [Compound 73]	3630	20.4	46.8	18.6				
Fc1ccc(OC2CCN(CC3CC4c5ccccc5Cc5ccc(F)cc5C4O3)C2)cc1 (mixture of isomers) [Compound 36]	4070	12.3	4.68	21.9				

Compound	IC50 [1] [nM]	IC50 [2] [nM]	IC50 [3] [nM]	IC50 [4] [nM]	NET pIC50 [1]	5-HT2A pIC50 [2]	5-HT2C pIC50 [3]	D2L pIC50 [4]
O=C(OC1CCN(CC2CC3c4ccccc4Cc4ccc(F)cc4C3O2)C1)C1CC1 (mixture of isomers) [Compound 13]	5010	0.912	1.12	3.47				
CC(C)(C)NC(=S)N1CCN(CC2CC3c4ccccc4Cc4ccc(F)cc4C3O2)CC1 (stereo not shown) [Compound 109]	263	14.5	38.9	132				
OCC1CCCCN1CC1CC2c3ccccc3Cc3ccc(F)cc3C2O1 (mixture of isomers) [Compound 146]	> 10000	16.6	11.5	81.3				
Fc1ccc2c(c1)C1OC(CN3CCN(c4nc5ccccc5s4)CC3)CC1c1ccccc1C2 (stereo not shown) [Compound 125]	> 10000	17.4	77.6	257				
Fc1ccc2c(c1)C1OC(CN3CCC(N4CCCCC4)CC3)CC1c1ccccc1C2 (stereo not shown) [Compound 172]	6760	15.1	15.8	43.7				
Fc1ccc2c(c1)[C@@H]1O[C@@H](CN3CCN(CC4CCCCC4)CC3)C[C@@H]1c1ccccc1C2 [Compound 69]	> 10000	41.7	79.4	7.24				
COc1ccc(OC2CCN(CC3CC4c5ccccc5Cc5ccc(F)cc5C4O3)C2)cc1 (mixture of isomers) [Compound 33]	4900	6.17	2	7.94				
O=C(NCCN1CCOCC1)C1CCN(CC2CC3c4ccccc4Cc4ccc(F)cc4C3O2)CC1 (stereo not shown) [Compound 181]	> 10000	4.79	7.59	57.5				
O=C(NC1CC1)N1CCN(CC2CC3c4ccccc4Cc4ccc(F)cc4C3O2)CC1 (stereo not drawn) [Compound 94, [2R-(2α, 3aα, 12bβ)]4-(11-fluoro-3,3a,8,12b-tetrahydro-2H-1-oxa-dibenzo[e,h]-azulen-2-ylmethyl)-piperazine-1-carboxylic acid cyclopropylamide.oxalate (1:1)]	10700	0.389	2.19	35.5				
CSc1ccc(NC(=O)C2CCN(CC3CC4c5ccccc5Cc5ccc(F)cc5C4O3)CC2)cc1 (stereo not shown) [Compound 183]	> 10000	< 10	1.15	25.7				
O=C(CCN1CCN(CC2CC3c4ccccc4Cc4ccc(F)cc4C3O2)CC1)c1ccc(F)cc1 (stereo not shown) [Compound 52]	490	3.39	2.88	1.2				
Fc1ccc2c(c1)C1OC(CN3CCN(Cc4cnc[nH]4)CC3)CC1c1ccccc1C2 (stereo not shown) [Compound 66]	4370	7.41	37.2	13.8				
CCNC(=O)OCC1CCN(CC2CC3c4ccccc4Cc4ccc(F)cc4C3O2)C1 (mixture of isomers) [Compound 20]	1050	0.832	1.41	3.63				
O=C(NC1CCN(CC2CC3c4ccccc4Cc4ccc(F)cc4C3O2)CC1)c1ccc(Cl)cc1Cl (stereo not shown) [Compound 230]	5750	2.95	12.6	6.03				
COC(=O)C(Cc1ccc(Cl)cc1)NC(=O)C1CCN(CC2CC3c4ccccc4Cc4ccc(F)cc4C3O2)CC1 (mixture of isomers) [Compound 184]	3890	1.41	5.75	25.1				
CCC(C)(C)NC(=O)N1CCN(CC2CC3c4ccccc4Cc4ccc(F)cc4C3O2)CC1 (stereo not shown) [Compound 90]	4470	1.62	20	30.9				
O=C(NC1CCCCC1)N1CCN(CC2CC3c4ccccc4Cc4ccc(F)cc4C3O2)CC1 (stereo not shown) [Compound 95]	9550	1.74	7.59	69.2				
